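Assay format: 96-well plates, 48-hour exposure. At the GI50, growth is halved.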 The source made the active and inactive calls. Rule as the data show it: active = GI50 up to about 1.1 µM and inactive = higher.
What was measured:
Experiment in all cases: DTP human tumour cell line panel, 48 h
[1] = tested on: UACC-62
[2] = tested on: HCC 2998
[3] = tested on: UO-31
[4] = tested on: ACHN
[5] = tested on: 786-0
[6] = tested on: A498
[7] = tested on: M14
[8] = tested on: HL-60
[9] = tested on: OVCAR-4
[10] = tested on: MOLT-4
[11] = tested on: OVCAR-8
[12] = tested on: K562
[13] = tested on: NCI-H23
[14] = tested on: OVCAR-5
[15] = tested on: SK-OV-3
[16] = tested on: EKVX
[17] = tested on: SR
[18] = tested on: SF-539
[19] = tested on: KM12

Measured: GI50

CCCCCCCCCCCCCCCCCC(=O)NCCCNCCCNC(=O)CCCCCCCCCCCCCCCCC
inactive: [1] > 100 µM | [2] > 100 µM | [3] > 100 µM | [4] > 100 µM | [5] > 100 µM | [6] > 100 µM | [7] > 100 µM | [8] > 100 µM | [9] > 100 µM | [10] > 100 µM | [11] > 100 µM | [12] > 100 µM | [13] > 100 µM | [14] > 100 µM | [15] > 100 µM

COC(=O)c1ccccc1NC(=O)C(=O)NNC(=O)c1ccncc1
inactive: [1] > 100 µM | [2] > 100 µM | [3] > 100 µM | [16] > 100 µM | [4] > 100 µM | [17] > 100 µM | [5] > 100 µM | [7] > 100 µM | [8] > 100 µM | [9] > 100 µM | [10] > 100 µM | [18] > 100 µM | [11] > 100 µM | [13] > 100 µM | [15] > 100 µM | [19] > 100 µM

CC(C)(C)c1cc(CCC(=O)Nc2ccc(Cl)cc2)nc(S)n1
inactive: [1] > 100 µM | [2] > 100 µM | [3] > 100 µM | [16] > 100 µM | [4] > 100 µM | [5] > 100 µM | [7] > 100 µM | [8] > 100 µM | [9] > 100 µM | [10] > 100 µM | [18] > 100 µM | [11] > 100 µM | [12] > 100 µM | [13] > 100 µM | [14] > 100 µM | [15] > 100 µM | [19] > 100 µM

COc1ccc(/C=C2/C[N+](C)(C)C/C(=C/c3ccc(OC)cc3)C2=O)cc1
inactive: [1] 16.3 µM | [2] 15.3 µM | [3] > 100 µM | [16] > 100 µM | [4] > 100 µM | [5] 34.7 µM | [6] 68.4 µM | [7] 70.5 µM | [8] 14.7 µM | [9] 36 µM | [10] 16.7 µM | [18] 40 µM | [11] 31.9 µM | [12] 11.6 µM | [13] 56 µM | [14] > 68.7 µM | [15] > 100 µM | [19] 16 µM

O=C1C=Cc2ncccc2C1=O
inactive: [1] 16.8 µM | [2] > 48.1 µM | [3] 30.5 µM | [16] 23.5 µM | [4] 20.8 µM | [5] 15.7 µM | [6] > 54 µM | [7] 18.1 µM | [8] 5.22 µM | [9] 5.77 µM | [10] 2.45 µM | [18] 21.1 µM | [11] 16.3 µM | [12] 7.71 µM | [13] 20.3 µM | [14] > 44.2 µM | [15] 37.9 µM | [19] 33.7 µM

Cc1cc2c(cc1C)[n+]([O-])c(C(=O)/C=C/c1ccc(Cl)cc1)c(C)[n+]2[O-]
inactive: [1] 20.3 µM | [2] 23.5 µM | [3] 17.9 µM | [16] 55 µM | [4] 25.5 µM | [5] 18.9 µM | [6] 26.7 µM | [7] 23.3 µM | [8] 24 µM | [9] 33.7 µM | [10] 23.8 µM | [18] 20.5 µM | [11] 29.7 µM | [12] 33.6 µM | [13] 20.7 µM | [14] 42.3 µM | [15] 34.7 µM | [19] 33.7 µM

CN(C)CCCNC(=O)N/N=C/c1cccc([N+](=O)[O-])c1
inactive: [1] > 100 µM | [4] > 100 µM | [5] > 100 µM | [7] > 100 µM | [9] > 100 µM | [10] > 100 µM | [18] > 100 µM | [11] > 100 µM | [12] > 100 µM | [13] > 100 µM | [15] > 100 µM | [19] > 100 µM

Brc1ccc(/N=c2/nc3ccccn3n3nc(-c4ccccc4)cc23)cc1
inactive: [1] 15.1 µM | [3] > 100 µM | [16] 47.6 µM | [4] 26.2 µM | [17] > 100 µM | [5] 19.9 µM | [7] 13.7 µM | [8] > 100 µM | [9] 5.89 µM | [10] > 100 µM | [18] 28.3 µM | [11] 28.3 µM | [12] > 100 µM | [13] 55.3 µM | [15] > 100 µM | [19] 39.9 µM

[N-]=[N+]=NC1CC(n2cc(COCC(F)(F)F)c(=O)[nH]c2=O)OC1CO (stereo not given)
inactive: [1] > 100 µM | [2] > 100 µM | [3] > 100 µM | [16] > 100 µM | [4] > 100 µM | [5] > 100 µM | [6] > 100 µM | [7] > 100 µM | [8] > 100 µM | [9] > 100 µM | [10] > 100 µM | [18] > 100 µM | [11] > 100 µM | [12] > 100 µM | [13] > 100 µM | [14] > 100 µM | [15] > 100 µM | [19] > 100 µM

O=c1[nH]nc2ccccc2c1Cl
inactive: [1] 12.8 µM | [2] 1.52 µM | [3] 15 µM | [16] 4.29 µM | [4] 16.3 µM | [5] 14.6 µM | [6] 17.5 µM | [7] 12.3 µM | [9] 11.2 µM | [10] 14 µM | [18] 15.6 µM | [11] 21.2 µM | [12] 4.24 µM | [13] 15.1 µM | [14] 18.3 µM | [15] 17.7 µM | [19] 9.44 µM

NC(=O)c1ccccc1NC(=O)C(=O)C(C(=O)c1ccc2ccccc2c1)C1OC(=O)c2ccccc21 (stereo not given)
inactive: [1] 10.4 µM | [2] 7.1 µM | [3] 13.2 µM | [16] 26.5 µM | [4] > 100 µM | [5] 6.25 µM | [6] > 100 µM | [7] 14.3 µM | [9] 11.6 µM | [10] 3.49 µM | [18] 4.6 µM | [11] 7.66 µM | [12] 16.5 µM | [13] 9.66 µM | [14] 24 µM | [15] 14.6 µM | [19] 18.9 µM

O=c1[nH]c(-c2ccccc2)nc2cc([N+](=O)[O-])c(/C(Cl)=C/c3ccccc3)cc12
inactive: [1] 15.1 µM | [2] > 100 µM | [3] 99.5 µM | [16] 46.5 µM | [4] 68.2 µM | [17] 31.1 µM | [5] 35 µM | [9] 18.3 µM | [10] 50.8 µM | [18] 25.2 µM | [11] 19.7 µM | [12] 7.5 µM | [13] 43.3 µM | [14] > 100 µM | [15] 27.3 µM | [19] 26.2 µM

O/N=C1/CCCC/C1=C\c1ccc(Cl)c(Cl)c1
inactive: [1] 29.7 µM | [2] 29 µM | [3] 20.8 µM | [16] 23.9 µM | [4] 28.7 µM | [5] 29.9 µM | [6] 29.6 µM | [7] 28.2 µM | [8] 3.8 µM | [9] 21.5 µM | [10] 15.2 µM | [18] 19 µM | [11] 33.7 µM | [12] 27.8 µM | [13] 28.8 µM | [15] 35.3 µM

CCCO/S(=N\S(=O)(=O)c1ccccc1)c1ccccc1[N+](=O)[O-] (stereo not given)
inactive: [1] > 100 µM | [2] > 100 µM | [3] > 100 µM | [16] > 100 µM | [4] > 100 µM | [17] > 100 µM | [5] > 100 µM | [7] > 100 µM | [9] > 100 µM | [10] > 100 µM | [18] > 100 µM | [11] > 100 µM | [12] > 100 µM | [13] > 100 µM | [14] > 100 µM | [15] > 100 µM | [19] > 100 µM

[N-]=[N+]=NC(c1cn(C2CC(O)C(CO)O2)c(=O)[nH]c1=O)C(Cl)Br (stereo not given)
inactive: [2] > 100 µM | [3] > 100 µM | [16] > 100 µM | [4] > 100 µM | [17] > 100 µM | [5] > 100 µM | [8] > 100 µM | [10] > 100 µM | [18] > 100 µM | [11] > 100 µM | [12] > 100 µM | [13] > 100 µM | [19] > 100 µM

OC1COC2CC(Nc3ccccn3)OC12 (stereo not given)
inactive: [1] > 100 µM | [2] > 100 µM | [3] > 100 µM | [16] > 100 µM | [4] > 100 µM | [17] > 100 µM | [5] > 100 µM | [7] > 100 µM | [9] > 100 µM | [10] > 100 µM | [18] > 100 µM | [11] > 100 µM | [12] > 100 µM | [13] > 100 µM | [14] > 100 µM | [15] > 100 µM | [19] > 100 µM

Clc1ccccc1C1=NN(c2ccccc2)C2c3ccccc3OCC12 (stereo not given)
inactive: [2] > 100 µM | [3] > 100 µM | [16] > 100 µM | [4] > 100 µM | [5] 74.5 µM | [6] > 100 µM | [8] 41.6 µM | [10] 57.8 µM | [11] > 100 µM | [12] 44.3 µM | [13] > 100 µM | [14] > 100 µM | [15] > 100 µM | [19] > 100 µM
